Structures are written as SMILES. pIC50: −log10 of the molar value.

The pIC50 is the IC50 on a negative log10 scale, so that one unit is a factor of ten. Low values mean a large IC50, high ones a small IC50.

For experiment [1], the target named is T1, histone deacetylase activity (HeLa nuclear extract).
T1 construct: Histone deacetylase activity from crude nuclear extract derived from HeLa cells was used for screening
The experiment can be described thus: HDAC fluorescent activity assay (Biomol Fluor de Lys), HeLa nuclear extract. As to conditions: Fluor de Lys substrate, IC50 range. The experiment is classed as biochemical. The method, then: The ability of compounds to inhibit histone deacetylase activities was measured using the commercially available HDAC fluorescent activity assay from Biomol. In brief, the Fluor de Lys™ substrate, a lysine with an epsilon-amino acetylation, is incubated with the source of histone deacetylase activity (HeLa nuclear extract) in the presence or absence of inhibitor. Deacetylation of the substrate sensitises the substrate to Fluor de Lys™ developer, which generates a fluorophore. Thus, incubation of the substrate with a source of HDAC activity results in an increase in signal that is diminished in the presence of an HDAC inhibitor.
Data are expressed as a percentage of the control, measured in the absence of inhibitor, with background signal being subtracted from all samples, as follows:— % activity=((S^i−B)/(S^o−B))×100 where S^i is the signal in the presence of substrate, enzyme and inhibitor, S^o is the signal in the presence of substrate, enzyme and the vehicle in which the inhibitor is dissolved, and B is the background signal measured in the absence of enzyme.
IC50 values were determined by non-linear regression analysis, after fitting the results of eight data points to the equation for sigmoidal dose response with variable slope (% activity against log concentration of compound), using Graphpad Prism software.
Histone deacetylase activity from crude nuclear extract derived from HeLa cells was used for screening. The preparation, purchased from 4C (Seneffe, Belgium), was prepared from HeLa cells harvested whilst in exponential growth phase. The nuclear extract is prepared according to Dignam JD1983 Nucl. Acid. Res. 11, 1475-1489, snap frozen in liquid nitrogen and stored at −80° C. The final buffer composition was 20 mM Hepes, 100 mM KCl, 0.2 mM EDTA, 0.5 mM DTT, 0.2 mM PMSF and 20% (v/v) glycerol.

Experiment [2] deals with Hela cancer cell line. The experiment can be described thus: Cell inhibition assay (SRB cell viability), Hela. It is filed as cell-based. Particulars: 72 h, Hela cells, IC50 range. The method, then: (§1) The corresponding cancer cell lines (Hela, U937 and HUT) growing in log phase were harvested and seeded at 1000 cells/well (200 ul final volume) into 96-well tissue culture plates. Following 24 h of cell growth cells were treated with compounds (final concentration of 20 uM). Plates were then re-incubated for a further 72 h before a sulphorhodamine B (SRB) cell viability assay was conducted according to Skehan 1990 J Natl Canc Inst 82, 1107-1112.
(§2) Data were expressed as a percentage inhibition of the control, measured in the absence of inhibitor, as follows:— % inhibition=100−((S^i/S^o)×100) where S^i is the signal in the presence of inhibitor and S^o is the signal in the presence of DMSO. IC50 values were determined by non-linear regression analysis, after fitting the results of eight data points to the equation for sigmoidal dose response with variable slope (% activity against log concentration of compound), using Graphpad Prism software. […] NT=Not tested

For experiment [3], the system named is HUT cancer cell line. Put plainly: Cell inhibition assay (SRB cell viability), HUT. It is filed as cell-based. As to conditions: HUT cells, 72 h, IC50 range. The method, then: as §1, §2

Take `O=C(CCCCCCC(=O)Nc1cccc(CN[C@@H](Cc2ccccc2)C(=O)O)c1)NO` [Compound 27, (S)-2-[3-(7-Hydroxycarbamoyl-heptanoylamino)-benzylamino]-3-phenyl-propionic acid]: the pIC50 in experiment [1] is 6.00 to 7.00; in experiment [2] (Homo sapiens, HeLa), below 5.48.

For the compound `O=C(CCCCCCC(=O)Nc1cccc(CN[C@@H](CCc2ccccc2)C(=O)O)c1)NO` [Compound 30, (S)-2-[3-(7-Hydroxycarbamoyl-heptanoylamino)-benzylamino]-4-phenyl-butyric acid], the pIC50 was 6.00 to 7.00 in experiment [1] and below 5.48 in experiment [2] (Homo sapiens, HeLa).

Turning to `CCOC(=O)[C@H](COC(C)(C)C)NCc1cccc(NC(=O)CCCCCCC(=O)NO)c1` [Compound 32, (S)-3-tert-Butoxy-2-[3-(7-hydroxycarbamoyl-heptanoylamino)-benzylamino]-propionic acid ethyl ester], the negative logarithm of the IC50 (pIC50) in experiment [1] is above 7.00; in experiment [2] (Homo sapiens, HeLa), 5.48 to 6.48; in experiment [3], 5.48 to 6.48.

Take `CC(C)(C)OC[C@H](NCc1cccc(NC(=O)CCCCCCC(=O)NO)c1)C(=O)O` [Compound 33, (S)-3-tert-Butoxy-2-[3-(7-hydroxycarbamoyl-heptanoylamino)-benzylamino]-propionic acid]: the negative-log IC50 (pIC50) in experiment [1] is 6.00 to 7.00; in experiment [2] (Homo sapiens, HeLa), below 5.48.

Turning to `O=C(CCCCCCC(=O)N1Cc2ccccc2C[C@H]1C(=O)N[C@H](C(=O)O)c1ccccc1)NO` [Compound 45, (S)-{[(S)-2-(7-Hydroxycarbamoyl-heptanoyl)-1,2,3,4-tetrahydro-isoquinoline-3-carbonyl]-amino}-phenyl-acetic acid], the pIC50 in experiment [1] was below 6.00; in experiment [2] (Homo sapiens, HeLa), below 5.48.

Regarding `O=C(CCCCCCC(=O)N1Cc2ccccc2C[C@H]1C(=O)N[C@@H](Cc1ccccc1)C(=O)O)NO` [Compound 49, (S)-2-{[(S)-2-(7-Hydroxycarbamoyl-heptanoyl)-1,2,3,4-tetrahydro-isoquinoline-3-carbonyl]amino}-3-phenyl-propionic acid], the pIC50 in experiment [1] was 6.00 to 7.00; in experiment [2], below 5.48.

Take `O=C(CCCCCCC(=O)N1CCCC1C(=O)N[C@H](C(=O)O)c1ccccc1)NO` (stereo partly drawn) [Compound 54, (S)-{[1-(7-Hydroxycarbamoyl-heptanoyl)-pyrrolidine-2-carbonyl]-amino}-phenyl-acetic acid]: the pIC50 was below 6.00 in experiment [1] and below 5.48 in experiment [2] (Homo sapiens, HeLa).

Turning to `O=C(CCCCCCC(=O)N1CCCC1C(=O)N[C@@H](Cc1ccccc1)C(=O)O)NO` (stereo partly drawn) [Compound 57, (S)-2-{[1-(7-Hydroxycarbamoyl-heptanoyl)-pyrrolidine-2-carbonyl]-amino}-3-phenyl-propionic acid], the negative-log IC50 (pIC50) in experiment [1] was below 6.00; in experiment [2] (Homo sapiens, HeLa) it was below 5.48.

Take `O=C(CCCCCCC(=O)N1Cc2[nH]c3ccccc3c2C(C(=O)NC(Cc2ccccc2)C(=O)O)C1)NO` [Compound 59, (S)-2-{[(S)-2-(7-Hydroxycarbamoyl-heptanoyl)-2,3,4,9-tetrahydro-1H-bet α-carboline-4-carbonyl]-amino}-3-phenyl-propionic acid]: the negative logarithm of the IC50 (pIC50) in experiment [1] was above 7.00; in experiment [2] (Homo sapiens, HeLa) it was below 5.48.

Take `O=C(CCCCCCC(=O)Nc1cccc(C(=O)N[C@H](C(=O)O)c2ccccc2)c1)NO` [Compound 61, (S)-[3-(7-Hydroxycarbamoyl-heptanoylamino)-benzoylamino]phenyl-acetic acid]: the pIC50 in experiment [1] was 6.00 to 7.00; in experiment [2] (Homo sapiens, HeLa), below 5.48.

Consider `O=C(CCCCCCC(=O)N1CCc2c([nH]c3ccccc23)C1C(=O)N[C@@H](Cc1ccccc1)C(=O)O)NO` (stereo partly drawn) [Compound 65, (S)-2-{[2-(7-Hydroxycarbamoyl-heptanoyl)-2,3,4,9-tetrahydro-1H-beta-carboline-1-carbonyl]-amino}-3-phenyl-propionic acid], for which the negative-log IC50 (pIC50) in experiment [1] is above 7.00; in experiment [2] (Homo sapiens, HeLa), below 5.48.

For the compound `O=C(CCCCCCC(=O)Nc1cncc(CN[C@@H](Cc2ccccc2)C(=O)O)c1)NO` [Compound 67, (S)-2-{[5-(7-Hydroxycarbamoyl-heptanoylamino)-pyridin-3-ylmethyl]-amino}-3-phenyl-propionic acid], the pIC50 in experiment [1] is 6.00 to 7.00; in experiment [2] (Homo sapiens, HeLa), below 5.48.

Take `O=C(CCCCCNC(=O)c1cccc(CN[C@H](C(=O)O)c2ccccc2)c1)NO` [Compound 70, (S)-[3-(5-Hydroxycarbamoyl-pentylcarbamoyl)-benzylamino]-phenyl-acetic acid]: the pIC50 in experiment [1] was 6.00 to 7.00; in experiment [2] (Homo sapiens, HeLa), below 5.48.

Regarding `O=C(CCCCCCNC(=O)c1cc2cc(CCC(=O)N[C@@H](Cc3ccccc3)C(=O)O)ccc2[nH]1)NO` [Compound 101, (S)-2-{3-[2-(6-Hydroxycarbamoyl-hexylcarbamoyl)-1H-indol-5-yl]-propionylamino}-3-phenyl-propionic acid], in experiment [1], the negative-log IC50 (pIC50) was above 7.00.

As for `O=C(Cc1ccc(OCCCC(=O)N[C@@H](Cc2ccccc2)C(=O)O)cc1)Nc1ccc2sc(C(=O)NO)cc2c1` [Compound 103, (S)-2-(4-{4-[(2-Hydroxycarbamoyl-benzo[b]thiophen-5-ylcarbamoyl)-methyl]-phenoxy}-butyrylamino)-3-phenyl-propionic acid], the pIC50 in experiment [1] is above 7.00.

In experiment [1], `O=C(NO)c1cc2ccc(CNCc3ccc(CN[C@@H](Cc4ccccc4)C(=O)O)cc3)cc2s1` [Compound 105, (S)-2-(4-{[(2-Hydroxycarbamoyl-benzo[b]thiophen-6-ylmethyl)-amino]-methyl}-benzylamino)-3-phenyl-propionic] gave a pIC50 above 7.00.

In experiment [1], `O=C(NO)c1cc2ccc(CNCc3ccc(CN4CCC[C@H]4C(=O)O)cc3)cc2s1` [Compound 112, (S)-1-(4-{[(2-Hydroxycarbamoyl-benzo[b]thiophen-6-ylmethyl)-amino]-methyl}-benzyl)-pyrrolidine-2-carboxylic acid] had a pIC50 of 6.00 to 7.00.

Take `CC(C)(C)SC[C@H](NCc1ccc(CNCc2ccc3cc(C(=O)NO)sc3c2)cc1)C(=O)O` [Compound 114, (R)-3-tert-Butylsulfanyl-2-(4-{[(2-hydroxycarbamoyl-benzo[b]thiophen-6-ylmethyl)-amino]-methyl}-benzylamino)-propionic acid]: the negative logarithm of the IC50 (pIC50) in experiment [1] is 6.00 to 7.00.

In experiment [1], `O=C(NO)c1cc2ccc(CNCc3ccc(CN[C@H](C(=O)O)C4CCCCC4)cc3)cc2s1` [Compound 117, (S)-Cyclohexyl-(4-{[(2-hydroxycarbamoyl-benzo[b]thiophen-6-ylmethyl)-amino]-methyl}-benzylamino)-acetic acid] had a negative-log IC50 (pIC50) above 7.00.

For `C[C@H](NCc1ccc(CNCc2ccc3cc(C(=O)NO)sc3c2)cc1)C(=O)O` [Compound 119, (S)-2-(4-{[(2-Hydroxycarbamoyl-benzo[b]thiophen-6-ylmethyl)-amino]-methyl}-benzylamino)-propionic acid], in experiment [1], the negative logarithm of the IC50 (pIC50) is above 7.00.

Compound `O=C(O)CNCc1ccc(CNCc2ccc3cc(C(=O)NO)sc3c2)cc1` [Compound 121, (4-{[(2-Hydroxycarbamoyl-benzo[b]thiophen-6-ylmethyl)-amino]-methyl}-benzylamino)-acetic acid] had a negative-log IC50 (pIC50) in experiment [1] above 7.00.

For `CC(C)C[C@H](NCc1ccc(CNCc2ccc3cc(C(=O)NO)sc3c2)cc1)C(=O)O` [Compound 123, (S)-2-(4-{[(2-Hydroxycarbamoyl-benzo[b]thiophen-6-ylmethyl)-amino]-methyl}-benzylamino)-4-methyl-pentanoic acid], in experiment [1], the pIC50 was above 7.00.

For the compound `O=C(NO)c1cc2ccc(CNCc3ccc(CN[C@H](C(=O)O)c4ccccc4)cc3)cc2s1` [Compound 125, (S)-(4-{[(2-Hydroxycarbamoyl-benzo[b]thiophen-6-ylmethyl)-amino]-methyl}-benzylamino)-phenyl-acetic acid], the negative logarithm of the IC50 (pIC50) in experiment [1] is above 7.00.

For the compound `O=C(NO)c1cc2ccc(CNCC3CCC(CN[C@H](C(=O)O)c4ccccc4)CC3)cc2s1` (stereo partly drawn) [Compound 127, (S)-[(4-{[(2-Hydroxycarbamoyl-benzo[b]thiophen-6-ylmethyl)-amino]-methyl}-cyclohexylmethyl)-amino]-phenyl-acetic acid], in experiment [1], the negative logarithm of the IC50 (pIC50) was 6.00 to 7.00.

In experiment [1], `CC(C)C[C@H](NCC1CCC(CNCc2ccc3cc(C(=O)NO)sc3c2)CC1)C(=O)O` (stereo partly drawn) [Compound 129, (S)-2-[(4-{[(2-Hydroxycarbamoyl-benzo[b]thiophen-6-ylmethyl)-amino]-methyl}-cyclohexylmethyl)-amino]-4-methyl-pentanoic acid] had a negative-log IC50 (pIC50) of 6.00 to 7.00.

Values taken from US9133104B2 (Chroma Therapeutics Ltd., priority 2005, dated 2015).
